The values that follow come from US10596172B2 (Celgene CAR LLC, priority 2008, dated 2020).

Each structure is given as a SMILES string. Read-outs that look alike come from different tables or passages of the source. Bounds are passed on as bounds.

The test relates to B cell lymphoma cell lines. Kind of test: B cell lymphoma proliferation assay. Type of test: cell-based.
[1] abbreviates: DHL4 B cell lymphoma cell line, read-out: EC50 (μM) DHL4.
The mark [2] stands for this setting: Homo sapiens, DOHH-2, DOHH2 B cell lymphoma cell line, read-out: EC50 (μM) DOHH2.
The mark [3] stands for this setting: Homo sapiens, WSUDLCL2, WSU-DLCL2 B cell lymphoma cell line, read-out: EC50 (μM) WSU-DLCL2.

Regarding `C=CC(=O)Nc1cccc(Nc2nc(Nc3cc(OC)c(OC)c(OC)c3)ncc2F)c1` [Compound I-133, 4-(3-acrylamidophenylamino)-5-fluoro-2-(3,4,5-trimethoxyphenylamino)-pyrimidine], the EC50 – broadly, the midpoint of the concentration-response curve – reads like this: under setting [1], less than 0.1 µM; under setting [2], 0.1 to 1 µM.

`C=CC(=O)Nc1cccc(Nc2nc(Nc3ccc(OC4CCC4)nc3)ncc2F)c1` [Compound I-79, N-(3-(2-(6-cyclobutoxypyridin-3-ylamino)-5-fluoropyrimidin-4-ylamino)phenyl)acrylamide]: under setting [2], the EC50 was 1 to 10 µM.

`C=CC(=O)N1CCOc2ccc(Nc3nc(Nc4ccc(N5CCCC5=O)cc4)ncc3C(C)=O)cc21` [Compound I-152, 1-{4-[5-Acetyl-4-(4-acryloyl-3,4-dihydro-2H-benzo[1,4]oxazin-6-ylamino)-pyrimidin-2-ylamino]-phenyl}-pyrrolidin-2-one]: the EC50 under setting [2] is 1 to 10 µM.

`C=CC(=O)N1CCOc2ccc(Nc3nc(Nc4ccc(OC)nc4)ncc3F)cc21` [Compound I-194, 1-(6-(5-fluoro-2-(6-methoxypyridin-3-ylamino)pyrimidin-4-ylamino)-2H-benzo[b][1,4]oxazin-4(3H)-yl)prop-2-en-1-one]: the EC50 by setting is: under setting [1], 1 to 10 µM; under setting [2], 1 to 10 µM; under setting [3], 1 to 10 µM.

Consider `C=CC(=O)Nc1cccc(Nc2nc(Nc3ccc(OC(C)C)nc3)ncc2F)c1` [Compound I-172, N-(3-(5-fluoro-2-(6-isopropoxypyridin-3-ylamino)pyrimidin-4-ylamino)phenyl)acrylamide], for which the EC50 under setting [2] was 1 to 10 µM.

In the case of `C=CC(=O)Nc1cccc(Nc2nc(Nc3ccc(OC)nc3)ncc2C(C)=O)c1` [Compound I-189, N-{3-[5-Acetyl-2-(6-methoxy-pyridin-3-ylamino)-pyrimidin-4-ylamino]-phenyl}-acrylamide], the EC50 is 1 to 10 µM under setting [1], greater than 10 µM under setting [2] and greater than 10 µM under setting [3].

Take `C=CC(=O)Nc1cccc(Oc2nc(Nc3ccc(OC)nc3)ncc2C)c1` [Compound I-186, N-(3-(2-(6-methoxypyridin-3-ylamino)-5-methylpyrimidin-4-yloxy)phenyl)acrylamide]: the EC50 was 1 to 10 µM under setting [1] and 1 to 10 µM under setting [2].

As for `C=CC(=O)N1CCOc2ccc(Nc3nc(Nc4ccc(N(C)C(=O)C(F)(F)F)nc4)ncc3C(C)=O)cc21` [Compound I-142, N-(5-(5-acetyl-4-(4-acryloyl-3,4-dihydro-2H-benzo[b][1,4]oxazin-6-ylamino)pyrimidin-2-ylamino)pyridin-2-yl)-2,2,2-trifluoro-N-methylacetamide], the EC50 under setting [2] fell in the range of 1 to 10 µM.

Take `C=CC(=O)Nc1cccc(Nc2nc(Nc3cccc(OCCO)c3)ncc2F)c1` [Compound I-105, N-(3-(5-fluoro-2-(3-(2-hydroxyethoxy)phenylamino)pyrimidin-4-ylamino)phenyl)acrylamide]: the EC50 was 0.1 to 1 µM under setting [2] and 1 to 10 µM under setting [3].

Regarding `C=CC(=O)Nc1cccc(Oc2nc(Nc3ccc(OC)nc3)ncc2C(C)=O)c1` [Compound I-188, N-{3-[5-Acetyl-2-(6-methoxy-pyridin-3-ylamino)-pyrimidin-4-yloxy]-phenyl}-acrylamide], the EC50 under setting [2] fell in the range of 1 to 10 µM.

For `C=CC(=O)N1CCOc2ccc(Nc3nc(Nc4ccc(OCCO)nc4)ncc3C(C)=O)cc21` [Compound I-128, 1-(6-{5-Acetyl-2-[6-(2-hydroxy-ethoxy)-pyridin-3-ylamino]-pyrimidin-4-ylamino}-2,3-dihydro-benzo[1,4]oxazin-4-yl)-propenone], under setting [2], the EC50 fell in the range of 1 to 10 µM.

For `C=CC(=O)Nc1cccc(Nc2nc(Nc3cccc(OCCCn4ccnc4)c3)ncc2F)c1` [Compound I-204, N-(3-(2-(3-(3-(1H-imidazol-1-yl)propoxy)phenylamino)-5-fluoropyrimidin-4-ylamino)phenyl)acrylamide], the EC50 is 1 to 10 µM under setting [2] and 1 to 10 µM under setting [3].

Regarding `C=CC(=O)Nc1cccc(Oc2nc(Nc3cccc(OCC4CCCN(C)C4)c3)ncc2F)c1` (centres unmarked) [Compound I-81, N-(3-(5-fluoro-2-(3-((1-methylpiperidin-3-yl)methoxy)phenylamino)pyrimidin-4-yloxy)phenyl)acrylamide], the EC50 under setting [2] was 0.1 to 1 µM.

With `C=CC(=O)Nc1cccc(Nc2nc(Nc3ccc(OCCOC)nc3)ncc2F)c1` [Compound I-103, N-(3-(5-fluoro-2-(6-(2-methoxyethoxy)pyridine-3-ylamino)pyrimidin-4-ylamino)phenyl)acrylamide], the EC50 under setting [3] fell in the range of 1 to 10 µM.

As for `C=CC(=O)N1CCOc2ccc(Nc3nc(Nc4ccc(N5CCOCC5)nc4)ncc3C(C)=O)cc21` [Compound I-168, 1-{6-[5-Acetyl-2-(6-morpholin-4-yl-pyridin-3-ylamino)-pyrimidin-4-ylamino]-2,3-dihydro-benzo[1,4]oxazin-4-yl}-propenone], the EC50 under setting [2] was in the range of 1 to 10 µM.

`C=CC(=O)Nc1cccc(Nc2nc(Nc3cccc(OCCCS(C)(=O)=O)c3)ncc2F)c1` [Compound I-138, 4-(3-acrylamidophenylamino)-5-fluoro-2-(3-(3-(methylsulfonyl)propoxy)phenylamino)-pyrimidine]: the EC50 reads like this: under setting [1], 1 to 10 µM; under setting [2], 1 to 10 µM.

With `C=CC(=O)N1CCOc2ccc(Nc3nc(Nc4ccc(N5CCOCC5)cc4)ncc3C(C)=O)cc21` [Compound I-169, 1-{6-[5-Acetyl-2-(4-morpholin-4-yl-phenylamino)-pyrimidin-4-ylamino]-2,3-dihydro-benzo[1,4]oxazin-4-yl}-propenone], the EC50 under setting [2] was 1 to 10 µM.

Take `C=CC(=O)Nc1cccc(Nc2nc(Nc3ccccc3)ncc2C#N)c1` [Compound I-157, N-(3-(5-cyano-2-(phenylamino)pyrimidin-4-ylamino)phenyl)acrylamide]: the EC50 reads like this: under setting [1], 1 to 10 µM; under setting [2], 1 to 10 µM; under setting [3], 1 to 10 µM.

Consider `C=CC(=O)Nc1cccc(Nc2nc(Nc3ccc(OC)nc3)ncc2C#N)c1` [Compound I-173, N-(3-(5-cyano-2-(6-methoxypyridin-3-ylamino)pyrimidin-4-ylamino)phenyl)acrylamide], for which the EC50 under setting [2] was in the range of 1 to 10 µM.

Turning to `C=CC(=O)Nc1cccc(Oc2nc(Nc3ccc(OC)nc3)ncc2C(=O)Nc2ccccc2)c1` [Compound I-159, 4-(3-acrylamidophenoxy)-2-(6-methoxypyridin-3-ylamino)-pyrimidine-5-carboxylic acid phenylamide], the EC50 under setting [2] is 1 to 10 µM.

With `C=CC(=O)Nc1cccc(Nc2nc(Nc3cccc(OC(C)(C)CO)c3)ncc2F)c1` [Compound I-91, N-(3-(5-fluoro-2-(3-(1-hydroxy-2-methylpropan-2-yloxy)phenylamino)pyrimidin-4-ylamino)phenyl)acrylamide], the EC50 by setting is: under setting [2], 1 to 10 µM; under setting [3], 1 to 10 µM.

For the compound `C=CC(=O)Nc1cccc(Nc2nc(Nc3ccc4[nH]ncc4c3)ncc2F)c1` [Compound I-156], the EC50 runs as follows: under setting [1], 1 to 10 µM; under setting [2], 0.1 to 1 µM; under setting [3], 1 to 10 µM.

For the compound `C=CC(=O)Nc1cccc(Nc2nc(Nc3ccc(OCCOC)nc3)ncc2C(C)=O)c1` [Compound I-122, N-(3-{5-Acetyl-2-[6-(2-methoxy-ethoxy)-pyridin-3-ylamino]-pyrimidin-4-ylamino}-phenyl)-acrylamide], under setting [2], the EC50 was 1 to 10 µM.

Regarding `C=CC(=O)N1CCC[C@@H](Nc2nc(Nc3cccc(OCCN4CCOCC4)c3)ncc2F)C1` [Compound I-135, (R)-1-(3-(5-fluoro-2-(3-(2-morpholinoethoxy)phenylamino)pyrimidin-4-ylamino)piperidin-1-yl)prop-2-en-1-one], the EC50 is, setting by setting: under setting [1], greater than 10 µM; under setting [2], greater than 10 µM.

As for `C=CC(=O)Nc1cccc(Nc2nc(Nc3ccc(OCc4ccccn4)c(Cl)c3)ncc2F)c1` [Compound I-86, N-(3-(2-(3-chloro-4-(pyridin-2-ylmethoxy)phenylamino)-5-fluoropyrimidin-4-ylamino)phenyl)acrylamide], the EC50 under setting [2] is greater than 10 µM.

On to `C=CC(=O)Nc1cccc(Nc2nc(Nc3ccc(OCCO)nc3)ncc2C(C)=O)c1` [Compound I-121, N-(3-{5-Acetyl-2-[6-(2-hydroxy-ethoxy)-pyridin-3-ylamino]-pyrimidin-4-ylamino}-phenyl)-acrylamide], for which the EC50 under setting [2] is 1 to 10 µM.

As for `C=CC(=O)N1CCC[C@@H](Nc2nc(Nc3cccc(Cl)c3)ncc2F)C1` [Compound I-147, (R)-1-(3-(2-(3-chlorophenylamino)-5-fluoropyrimidin-4-ylamino)piperidin-1-yl)prop-2-en-1-one], under setting [2], the EC50 fell in the range of 1 to 10 µM.

Consider `C=CC(=O)N1CCOc2ccc(Nc3nc(Nc4ccc(OCCOC)cc4)ncc3F)cc21` [Compound I-141, 1-(6-(5-fluoro-2-(4-(2-methoxyethoxy)phenylamino)pyrimidin-4-ylamino)-2H-benzo[b][1,4]oxazin-4(3H)-yl)prop-2-en-1-one], for which the EC50 under setting [2] is 1 to 10 µM.

For `C=CC(=O)Nc1cccc(Nc2nc(Nc3cccc(S(N)(=O)=O)c3)ncc2F)c1` [Compound I-160, N-(3-(5-fluoro-2-(3-sulfamoylphenylamino)pyrimidin-4-ylamino)phenyl)acrylamide], the EC50 runs as follows: under setting [1], 1 to 10 µM; under setting [2], 1 to 10 µM; under setting [3], 1 to 10 µM.

As to `C=CC(=O)Nc1cccc(Nc2nc(Nc3ccc(OCC4CCN(C)CC4)nc3)ncc2F)c1` [Compound I-78, N-(3-(5-fluoro-2-(6-((1-methylpiperidin-4-yl)methoxy)pyridin-3-ylamino)pyrimidin-4-ylamino)phenyl)acrylamide], the EC50 under setting [2] fell in the range of 0.1 to 1 µM.

For `COCCOc1ccc(Nc2ncc(F)c(Nc3cccc(NC(=O)/C=C/CN4CC[C@@H](O)C4)c3)n2)cc1` [Compound I-89, (R,E)-N-(3-(5-fluoro-2-(4-(2-methoxyethoxy)phenylamino)pyrimidin-4-ylamino)phenyl)-4-(3-hydroxypyrrolidin-1-yl)but-2-enamide], under setting [2], the EC50 was in the range of 1 to 10 µM.

As to `C=CC(=O)Nc1cccc(Nc2nc(Nc3ccc(OC)nc3)ncc2OC)c1` [Compound I-192, N-(3-(5-methoxy-2-(6-methoxypyridin-3-ylamino)pyrimidin-4-ylamino)phenyl)acrylamide], the EC50 under setting [2] was 1 to 10 µM and the EC50 under setting [3] is greater than 10 µM.
